Drawing on US7875647B2, “Heteroaryl-pyrazole derivatives as cannabinoid CB1 receptor antagonists” (Green Cross Corporation, priority 2006, dated 2011), this text covers IC50 for 31 compounds.

The target of the assay is T1, Cannabinoid-1 receptor (CB1R) (Rattus norvegicus, UniProt P20272).
T1 construct: The tissue obtained from the brain of SD rats was homogenized; from tissue; host or cells: brain of SD rats (membrane pellet of the homogenate)
Put plainly: Cannabinoid-1 receptor (CB1R) binding affinity assay ([3H]CP-55940, rat CB-1 receptor binding protocol). Particulars: brain tissue of SD rats, [3H]CP-55940, 30° C. 60 min.

Read-outs that look alike come from different tables or passages of the source.

T1 sequence (P20272 whole entry): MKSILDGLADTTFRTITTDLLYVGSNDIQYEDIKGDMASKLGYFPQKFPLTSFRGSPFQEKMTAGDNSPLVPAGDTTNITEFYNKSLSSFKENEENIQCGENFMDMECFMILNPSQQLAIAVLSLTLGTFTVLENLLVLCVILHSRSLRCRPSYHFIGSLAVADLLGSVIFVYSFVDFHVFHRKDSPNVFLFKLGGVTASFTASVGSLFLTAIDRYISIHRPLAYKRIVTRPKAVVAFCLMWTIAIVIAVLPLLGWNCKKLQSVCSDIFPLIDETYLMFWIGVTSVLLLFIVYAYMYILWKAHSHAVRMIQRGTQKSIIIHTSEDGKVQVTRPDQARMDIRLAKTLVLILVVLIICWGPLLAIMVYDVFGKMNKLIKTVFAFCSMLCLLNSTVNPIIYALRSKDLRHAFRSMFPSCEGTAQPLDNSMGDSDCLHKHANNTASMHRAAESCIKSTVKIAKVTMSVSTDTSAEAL

One may read the IC50 as the concentration at which inhibition is half-maximal. Turning to `CCc1c(-c2nnc(C3(CC)CC3)s2)nn(-c2ccc(Cl)cc2Cl)c1-c1ccc(Cl)cc1` [Example 489, 2-(5-(4-chlorophenyl)-1-(2,4-dichlorophenyl)-4-ethyl-1H-pyrazol-3-yl)-5-(1-ethylcyclopropyl)-1,3,4-thiadiazole], the 50% inhibitory concentration (IC50) (read-out: IC50) was 19.8 nM. The same measure, in the same setting: the value for `Clc1ccc(-c2c(Cn3cncn3)c(-c3nnc(C4(c5ccc(Cl)cc5)CCCC4)s3)nn2-c2ccc(Cl)cc2Cl)cc1` [Example 515, 2-(4-((1H-1,2,4-triazol-1-yl)methyl)-5-(4-chlorophenyl)-1-(2,4-dichlorophenyl)-1H-pyrazol-3-yl)-5-(1-(4-chlorophenyl)cyclopentyl)-1,3,4-thiadiazole] was 1.91 nM; that for `CCCOC(C)(C)c1nnc(-c2nn(-c3ccc(Cl)cc3Cl)c(-c3ccc(Cl)cc3)c2C)s1` [Example 449, 2-(5-(4-chlorophenyl)-1-(2,4-dichlorophenyl)-4-methyl-1H-pyrazol-3-yl)-5-(2-propoxypropan-2-yl)-1,3,4-thiadiazole] was 61.3 nM; that for `CCCCC(O)c1nnc(-c2nn(-c3ccc(Cl)cc3Cl)c(-c3ccc(Cl)cc3)c2C)o1` (stereo not shown) [Example 241, 1-(5-(5-(4-chlorophenyl)-1-(2,4-dichlorophenyl)-4-methyl-1H-pyrazol-3-yl)-1,3,4-oxadiazol-2-yl)pentan-1-ol] was 73.4 nM. Still for that read-out and setting: the value for `Cc1c(-c2nnc(C3(C(C)O)CC3)o2)nn(-c2ccc(Cl)cc2Cl)c1-c1ccc(Cl)cc1` (stereo not shown) [Example 288, 1-(1-(5-(5-(4-chlorophenyl)-1-(2,4-dichlorophenyl)-4-methyl-1H-pyrazol-3-yl)-1,3,4-oxadiazol-2-yl)cyclopropyl)ethanol] was 60.2 nM; that for `Cc1c(-c2nnc(-c3cc4ccccc4o3)o2)nn(-c2ccc(Cl)cc2Cl)c1-c1ccc(Cl)cc1` [Example 18, 2-(Benzofuran-2-yl)-5-(5-(4-chlorophenyl)-1-(2,4-dichlorophenyl)-4-methyl-1H-pyrazol-3-yl)-1,3,4-oxadiazole] was 333 nM; that for `Cc1c(-c2nnc(C3CCC3)s2)nn(-c2ccc(Cl)cc2)c1-c1ccc(Br)cc1` [Example 424, 2-(5-(4-bromophenyl)-1-(4-chlorophenyl)-4-methyl-1H-pyrazol-3-yl)-5-cyclobutyl-1,3,4-thiadiazole] was 966 nM. Regarding `Cc1c(-c2nnc(C3CC=CC3)s2)nn(-c2ccc(Cl)cc2Cl)c1-c1ccc(Cl)cc1` [Example 384, 2-(5-(4-chlorophenyl)-1-(2,4-dichlorophenyl)-4-methyl-1H-pyrazol-3-yl)-5-(cyclopent-3-enyl)-1,3,4-thiadiazole], under “IC50(nM)”, the IC50 is 20.2 nM. As to `Clc1ccc(-c2c(C3CC3)c(-c3nnc(C4CCCCC4)s3)nn2-c2ccc(Cl)cc2Cl)cc1` [Example 440, 2-(5-(4-chlorophenyl)-4-cyclopropyl-1-(2,4-dichlorophenyl)-1H-pyrazol-3-yl)-5-cyclohexyl-1,3,4-thiadiazole], the IC50 (read-out: IC50) came out at 11 nM. Still for that read-out and setting: the value for `Cc1c(-c2nnn(C3CCCC3)n2)nn(-c2ccc(Cl)cc2Cl)c1-c1ccc(Cl)cc1` [Example 578, 5-(5-(4-Chlorophenyl)-1-(2,4-dichlorophenyl)-4-methyl-1H-pyrazol-3-yl)-2-cyclopentyl-2H-tetrazole] was 67.9 nM. With `C=C(C)c1c(-c2nnc(C(C)(C)C)s2)nn(-c2ccc(Cl)cc2Cl)c1-c1ccc(Br)cc1` [Example 535, 2-(5-(4-bromophenyl)-1-(2,4-dichlorophenyl)-4-(prop-1-en-2-yl)-1H-pyrazol-3-yl)-5-tert-butyl-1,3,4-thiadiazole], the IC50 (read-out: IC50) amounted to 12 nM. Same read-out and setting: the value for `Clc1ccc(-c2c(C3CC3)c(-c3nnc(C4CCC4)s3)nn2-c2ccc(Cl)cc2Cl)cc1` [Example 442, 2-(5-(4-chlorophenyl)-4-cyclopropyl-1-(2,4-dichlorophenyl)-1H-pyrazol-3-yl)-5-cyclobutyl-1,3,4-thiadiazole] was 18 nM; that for `Cc1c(-c2nnc(CC3CCCC3)s2)nn(-c2ccc(Cl)cc2Cl)c1-c1ccc(Cl)cc1` [Example 357, 2-(5-(4-Chlorophenyl)-1-(2,4-dichlorophenyl)-4-methyl-1H-pyrazol-3-yl)-5-(cyclopentylmethyl)-1,3,4-thiadiazole] was 30.9 nM.

On to `Cc1c(-c2n[nH]c(-c3ccco3)n2)nn(-c2ccc(Cl)cc2Cl)c1-c1ccc(Cl)cc1` [Example 616, 3-(5-(4-chlorophenyl)-1-(2,4-dichlorophenyl)-4-methyl-1H-pyrazol-3-yl)-5-(furan-2-yl)-1H-1,2,4-triazole], for which the IC50 (read-out: IC50) was 534 nM. Still for that read-out and setting: the value for `CC(=O)Oc1c(-c2nnc(C(C)(C)C)o2)nn(-c2ccc(Cl)cc2Cl)c1-c1ccc(Cl)cc1` [Example 216, 3-(5-tert-butyl-1,3,4-oxadiazol-2-yl)-5-(4-chlorophenyl)-1-(2,4-dichlorophenyl)-1H-pyrazol-4-yl acetate] was 57.3 nM.

For the compound `Cc1c(-c2nnc(C3(C(C)(C)O)CC3)o2)nn(-c2ccc(Cl)cc2Cl)c1-c1ccc(Cl)cc1` [Example 287, 2-(1-(5-(5-(4-chlorophenyl)-1-(2,4-dichlorophenyl)-4-methyl-1H-pyrazol-3-yl)-1,3,4-oxadiazol-2-yl)cyclopropyl)propan-2-ol], the IC50 (read-out: IC50) stood at 34.9 nM. `CCC(C)c1nnc(-c2nn(-c3ccc(Cl)cc3)c(-c3ccc(Br)cc3)c2C)s1` (stereo not shown) [Example 418, 2-(5-(4-bromophenyl)-1-(4-chlorophenyl)-4-methyl-1H-pyrazol-3-yl)-5-sec-butyl-1,3,4-thiadiazole]: the IC50 (read-out: IC50) was found to be 465 nM. Still for that read-out and setting: the value for `Cc1ccc(C2(c3nnc(-c4nn(-c5ccc(Cl)cc5Cl)c(-c5ccc(Cl)cc5)c4C)o3)CC2)cc1` [Example 131, 2-(5-(4-chlorophenyl)-1-(2,4-dichlorophenyl)-4-methyl-1H-pyrazol-3-yl)-5-(1-p-tolylcyclopropyl)-1,3,4-oxadiazole] was 7.26 nM; that for `Clc1ccc(-c2c(Cn3cncn3)c(-c3nnc(C4(c5ccc(Cl)cc5)CCC4)o3)nn2-c2ccc(Cl)cc2Cl)cc1` [Example 322, 2-(4-((1H-1,2,4-triazol-1-yl)methyl)-5-(4-chlorophenyl)-1-(2,4-dichlorophenyl)-1H-pyrazol-3-yl)-5-(1-(4-chlorophenyl)cyclobutyl)-1,3,4-oxadiazole] was 3.41 nM.

For the compound `Cc1c(-c2nnc(C3(c4ccc(F)cc4)CC3)s2)nn(-c2ccc(Cl)cc2Cl)c1-c1ccc(Cl)cc1` [Example 496, 2-(5-(4-chlorophenyl)-1-(2,4-dichlorophenyl)-4-methyl-1H-pyrazol-3-yl)-5-(1-(4-fluorophenyl)cyclopropyl)-1,3,4-thiadiazole], the IC50 (read-out: IC50) came out at 48.9 nM. Still for that read-out and setting: the value for `Cc1c(-c2nnc(C3(c4ccccc4)CC3)s2)nn(-c2ccc(Cl)cc2Cl)c1-c1ccc(Cl)cc1` [Example 487, 2-(5-(4-chlorophenyl)-1-(2,4-dichlorophenyl)-4-methyl-1H-pyrazol-3-yl)-5-(1-phenylcyclopropyl)-1,3,4-thiadiazole] was 9.6 nM; that for `Cc1c(-c2nnc(C3CCC3)s2)nn(-c2ccc(Cl)cc2Cl)c1-c1ccc(Br)cc1` [Example 364, 2-(5-(4-Bromophenyl)-1-(2,4-dichlorophenyl)-4-methyl-1H-pyrazol-3-yl)-5-cyclobutyl-1,3,4-thiadiazole] was 34.4 nM; that for `CCc1c(-c2nnc(C3(c4ccccc4)CCCC3)s2)nn(-c2ccc(Cl)cc2Cl)c1-c1ccc(Br)cc1` [Example 485, 2-(5-(4-bromophenyl)-1-(2,4-dichlorophenyl)-4-ethyl-1H-pyrazol-3-yl)-5-(1-phenylcyclopentyl)-1,3,4-thiadiazole] was 32.8 nM. Still for that read-out and setting: the value for `CC(=O)OCC(C)(C)c1nnc(-c2nn(-c3ccc(Cl)cc3Cl)c(-c3ccc(Cl)cc3)c2C)o1` [Example 252, 2-(5-(5-(4-chlorophenyl)-1-(2,4-dichlorophenyl)-4-methyl-1H-pyrazol-3-yl)-1,3,4-oxadiazol-2-yl)-2-methylpropyl acetate] was 54.5 nM; that for `OCc1c(-c2nnc(C3(c4ccc(Cl)cc4)CC3)o2)nn(-c2ccc(Cl)cc2Cl)c1-c1ccc(Cl)cc1` [Example 201, (5-(4-chlorophenyl)-3-(5-(1-(4-chlorophenyl)cyclopropyl)-1,3,4-oxadiazol-2-yl)-1-(2,4-dichlorophenyl)-1H-pyrazol-4-yl)methanol] was 4.02 nM. For the compound `CCc1c(-c2nnc(C3(c4ccc(Cl)cc4Cl)CC3)o2)nn(-c2ccc(Cl)cc2Cl)c1-c1ccc(Br)cc1` [Example 174, 2-(5-(4-bromophenyl)-1-(2,4-dichlorophenyl)-4-ethyl-1H-pyrazol-3-yl)-5-(1-(2,4-dichlorophenyl)cyclopropyl)-1,3,4-oxadiazole], the IC50 (read-out: IC50) is 6.97 nM.

As to `Cc1c(-c2nnc(CC3CCCCC3)o2)nn(-c2ccc(Cl)cc2Cl)c1-c1ccc(Br)cc1` [Example 56, 2-(5-(4-bromophenyl)-1-(2,4-dichlorophenyl)-4-methyl-1H-pyrazol-3-yl)-5-(cyclohexylmethyl)-1,3,4-oxadiazole], where the note is “read-out: IC50”, the IC50 stood at 37.6 nM. Consider `Cc1c(-c2nnn(Cc3ccsc3)n2)nn(-c2ccc(Cl)cc2Cl)c1-c1ccc(Cl)cc1` [Example 598, 5-(5-(4-Chlorophenyl)-1-(2,4-dichlorophenyl)-4-methyl-1H-pyrazol-3-yl)-2-(thiophen-3-ylmethyl)-2H-tetrazole], for which the half-inhibitory concentration (IC50) (read-out: IC50) stood at 77.6 nM. Turning to `Cc1c(-c2nnn(Cc3cccnc3)n2)nn(-c2ccc(Cl)cc2Cl)c1-c1ccc(Cl)cc1` [Example 586, 3-((5-(5-(4-Chlorophenyl)-1-(2,4-dichlorophenyl)-4-methyl-1H-pyrazol-3-yl)-2H-tetrazol-2-yl)methyl)pyridine], where the note is “read-out: IC50”, the IC50 was found to be 100 nM. Same read-out and setting: the value for `CCc1c(-c2nnc(C(C)(C)c3ccccc3)s2)nn(-c2ccc(Cl)cc2Cl)c1-c1ccc(Br)cc1` [Example 404, 2-(5-(4-bromophenyl)-1-(2,4-dichlorophenyl)-4-ethyl-1H-pyrazol-3-yl)-5-(2-phenylpropan-2-yl)-1,3,4-thiadiazole] was 5.15 nM; that for `Cc1c(-c2n[nH]c(C3CC3)n2)nn(-c2ccc(Cl)cc2Cl)c1-c1ccc(Cl)cc1` [Example 619, 3-(5-(4-chlorophenyl)-1-(2,4-dichlorophenyl)-4-methyl-1H-pyrazol-3-yl)-5-cyclopropyl-1H-1,2,4-triazole] was 128 nM.
